This passage reports refractive index and mass density results from the NIST ThermoML archive (doi:10.1021/je700126z).

The refractive index is a measure of how strongly the sample bends light. By mass density is commonly meant mass per unit of volume.

Molecules are shown by their SMILES. Numbers after ± are expanded uncertainties.

Data set [1] is described as follows: refractive index (Na D-line) (dimensionless). The following applies: 298.15 K; 101.33 kPa; Liquid; Standard Abbe refractometry.
For data set [2] the following is noted: 298.15 K; 101.33 kPa; Liquid; Vibrating tube method.

In the case of `CCCCCCCC[n+]1ccn(C)c1.F[B-](F)(F)F` [1-methyl-3-octylimidazolium tetrafluoroborate], the refractive index in data set [1] is 1.43329 ± 0.0012. Moreover, the mass density in data set [2] is on record as 1104.42 ± 6.6 kg/m3.

For `C1CCCCC1` [cyclohexane], the refractive index in data set [1] is 1.42403 ± 0.0007. In addition, in data set [2], the mass density is recorded as 773.76 ± 0.24 kg/m3.

In the case of `CCCCCC` [hexane], in data set [1], the refractive index is given as 1.37287 ± 0.00068. Further, the mass density in data set [2] worked out at 655.06 ± 0.19 kg/m3.

Take `c1ccsc1` [thiophene]: the refractive index in data set [1] stood at 1.52581 ± 0.00068. Further, the mass density in data set [2] is reported as 1058.5 ± 0.12 kg/m3.
